In general, IC50 refers to the concentration needed to halve the response being measured.

In assay [1] the target is T1, Recombinant STAT3 protein (STAT3(G127-I722)) (Homo sapiens, UniProt P40763).
T1 construct: Recombinant STAT3 protein (STAT3(G127-I722))
Nature of the assay: STAT3 Fluorescence Polarization (FP) Assay. Conditions: STAT3(G127-I722) 25 nM, probe 5-FAM-GpYLPQTV-NH2 2 nM, 45-minute incubation. Type of assay: binding. A digest of the protocol:
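Fluorescence polarization after a 45-min room-temperature incubation measured compound displacement of a 2 nM fluorescein-labelled phosphotyrosine peptide (5-FAM-GpYLPQTV-NH2) from 25 nM recombinant STAT3(G127-I722). Buffer was 10 mM HEPES pH 7.4 with 1% DMSO final. IC50s were fitted by nonlinear regression of mP against log concentration.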
(In general: Polarisation of emitted light reports the rotation of a fluorescent probe.)

Assay [2] deals with T2, Recombinant STAT6 protein (STAT6(W123-T658)) (Homo sapiens, UniProt P42226).
T2 construct: Recombinant STAT6 protein (STAT6(W123-T658))
T2 sequence (P42226 123-658): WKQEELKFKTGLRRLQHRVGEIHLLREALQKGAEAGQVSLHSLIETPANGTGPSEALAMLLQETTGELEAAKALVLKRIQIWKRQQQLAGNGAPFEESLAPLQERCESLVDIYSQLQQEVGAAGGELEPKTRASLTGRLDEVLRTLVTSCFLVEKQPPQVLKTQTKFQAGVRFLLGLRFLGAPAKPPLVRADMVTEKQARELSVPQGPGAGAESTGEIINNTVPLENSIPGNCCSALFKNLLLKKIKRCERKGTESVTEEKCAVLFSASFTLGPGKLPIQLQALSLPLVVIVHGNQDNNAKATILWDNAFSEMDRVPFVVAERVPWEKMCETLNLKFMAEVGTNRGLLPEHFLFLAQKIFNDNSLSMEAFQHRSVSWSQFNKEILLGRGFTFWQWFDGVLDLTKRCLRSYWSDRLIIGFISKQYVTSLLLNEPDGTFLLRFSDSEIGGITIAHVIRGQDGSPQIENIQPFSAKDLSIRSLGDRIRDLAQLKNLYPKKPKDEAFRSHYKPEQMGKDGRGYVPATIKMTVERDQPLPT
Nature of the assay: STAT6 Fluorescence Polarization (FP) Assay. Format: binding. Conditions: STAT6(W123-T658) 250 nM, probe 5-FAM-ApYKPFQDLI-NH2 2 nM, 45-minute incubation. The gist of the method:
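Displacement of a fluorescent phosphotyrosine peptide (5-FAM-ApYKPFQDLI-NH2, 2 nM) from STAT6(W123-T658) (250 nM), 1% DMSO, pH 7.4 HEPES buffer. After 45 min at room temperature, polarization (mP) was plotted versus log compound concentration and fitted by nonlinear regression to give IC50.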

T1 sequence (P40763 127-722): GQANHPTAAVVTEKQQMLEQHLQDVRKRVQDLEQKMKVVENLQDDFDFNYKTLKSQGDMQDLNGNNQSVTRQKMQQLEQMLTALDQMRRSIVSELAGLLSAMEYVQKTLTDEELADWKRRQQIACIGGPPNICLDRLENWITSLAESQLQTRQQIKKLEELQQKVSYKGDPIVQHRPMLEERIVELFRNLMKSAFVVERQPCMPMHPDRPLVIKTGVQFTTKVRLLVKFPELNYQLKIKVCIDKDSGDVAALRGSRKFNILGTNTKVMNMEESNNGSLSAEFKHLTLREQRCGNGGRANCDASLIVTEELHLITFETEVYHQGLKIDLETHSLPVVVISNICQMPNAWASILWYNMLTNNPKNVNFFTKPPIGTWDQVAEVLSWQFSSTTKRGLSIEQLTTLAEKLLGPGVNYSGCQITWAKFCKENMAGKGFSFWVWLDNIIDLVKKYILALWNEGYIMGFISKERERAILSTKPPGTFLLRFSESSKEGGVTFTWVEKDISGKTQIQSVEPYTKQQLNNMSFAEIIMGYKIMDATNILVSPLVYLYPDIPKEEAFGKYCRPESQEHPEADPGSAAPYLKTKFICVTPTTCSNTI

As for `CC(=O)N1CC[C@H]2CC[C@@H](C(=O)Nc3ccc(-c4ccccc4)cc3Cc3nccs3)N2C(=O)[C@@H](NC(=O)c2cc3cc(C(F)(F)P(=O)(O)O)ccc3s2)C1` [Compound 196, ((2-(((5S,8S,10aR)-3-acetyl-6-oxo-8-((3-(thiazol-2-ylmethyl)-[1,1′-biphenyl]-4-yl)carbamoyl)decahydropyrrolo[1,2-a][1,5]diazocin-5-yl)carbamoyl)benzo[b]thiophen-5-yl)difluoromethyl)phosphonic acid], the half-maximal inhibitory concentration (IC50) is 0.1 to 1 µM in assay [1] and 0.3 to 3 µM in assay [2].

On to `CC(=O)N1CC[C@H]2CC[C@@H](C(=O)N3CCOc4cc(-c5ccccc5)ccc43)N2C(=O)[C@@H](NC(=O)c2cc3cc(C(F)(F)P(=O)(O)O)ccc3s2)C1` [Compound 197, ((2-(((5S,8S,10aR)-3-acetyl-6-oxo-8-(7-phenyl-3,4-dihydro-2H-benzo[b][1,4]oxazine-4-carbonyl)decahydropyrrolo[1,2-a][1,5]diazocin-5-yl)carbamoyl)benzo[b]thiophen-5-yl)difluoromethyl)phosphonic acid], for which the concentration for half-maximal inhibition (IC50) lay within 0.1 to 1 µM in assay [1] and 0.3 to 3 µM in assay [2].

In the case of `CNC(=O)Cc1cc(-c2ccccc2)ccc1NC(=O)[C@@H]1CC[C@@H]2CCN(C(C)=O)C[C@H](NC(=O)c3cc4cc(C(F)(F)P(=O)(O)O)ccc4s3)C(=O)N21` [Compound 198, ((2-(((5S,8S,10aR)-3-acetyl-8-((3-(2-(methylamino)-2-oxoethyl)-[1,1′-biphenyl]-4-yl)carbamoyl)-6-oxodecahydrpyrrolo[1,2-a][1,5]diazocin-5-yl)carbamoyl)benzo[b]thiophen-5-yl)difluoromethyl)phosphonic acid], the concentration for half-maximal inhibition (IC50) in assay [1] lay in the range of 0.1 to 1 µM; in assay [2] it was 0.3 to 3 µM.

As for `CC(=O)N1CC[C@H]2CC[C@@H](C(=O)Nc3ccc4nnccc4c3)N2C(=O)[C@@H](NC(=O)c2ccc3ccc(C(F)(F)P(=O)(O)O)cc3c2)C1` [Compound 199, ((7-(((5S,8S,10aR)-3-acetyl-8-(cinnolin-6-ylcarbamoyl)-6-oxodecahydropyrrolo[1,2-a][1,5]diazocin-5-yl)carbamoyl)naphthalen-2-yl)difluoromethyl)phosphonic acid], the IC50 in assay [1] was in the range of 1 to 10 µM; in assay [2], 0.3 to 3 µM.

On to `CC(=O)N1CC[C@H]2CC[C@@H](C(=O)N3CCC[C@H]3Cc3ccccc3)N2C(=O)[C@@H](NC(=O)c2ccc3ccc(C(F)(F)P(=O)(O)O)cc3c2)C1` [Compound 200, ((7-(((5S,8S,10aR)-3-acetyl-8-((S)-2-benzylpyrrolidine-1-carbonyl)-6-oxodecahydropyrrolo[1,2-a][1,5]diazocin-5-yl)carbamoyl)naphthalen-2-yl)difluoromethyl)phosphonic acid], for which the results for the concentration for half-maximal inhibition (IC50) in assay [1] and in assay [2] were 1 to 10 µM and 0.3 to 3 µM, respectively.

As for `CC(=O)N1CC[C@H]2CC[C@@H](C(=O)N(C)c3cccc(C(F)F)c3)N2C(=O)[C@@H](NC(=O)c2cc3cc(C(F)(F)P(=O)(O)O)ccc3s2)C1` [Compound 201, ((2-(((5S,8S,10aR)-3-acetyl-8-((3-(difluoromethyl)phenyl)(methyl)carbamoyl)-6-oxodecahydropyrrolo[1,2-a][1,5]diazocin-5-yl)carbamoyl)benzo[b]thiophen-5-yl)difluoromethyl)phosphonic acid], the half-maximal inhibitory concentration (IC50) in assay [1] fell in the range of 1 to 10 µM; in assay [2], 0.3 to 3 µM.

On to `CC(=O)N1CC[C@H]2CC[C@@H](C(=O)N(C)c3ccc(C(F)F)cc3)N2C(=O)[C@@H](NC(=O)c2cc3cc(C(F)(F)P(=O)(O)O)ccc3s2)C1` [Compound 202, ((2-(((5S,8S,10aR)-3-acetyl-8-((4-(difluoromethyl)phenyl)(methyl)carbamoyl)-6-oxodecahydropyrrolo[1,2-a][1,5]diazocin-5-yl)carbamoyl)benzo[b]thiophen-5-yl)difluoromethyl)phosphonic acid], for which the figures for the concentration for half-maximal inhibition (IC50) in assay [1] and in assay [2] were 1 to 10 µM and 0.3 to 3 µM, respectively.

As to `CC(=O)N1CC[C@H]2CC[C@@H](C(=O)N3CC(c4cccc(C#N)c4)C3)N2C(=O)[C@@H](NC(=O)c2cc3cc(C(F)(F)P(=O)(O)O)ccc3s2)C1` [Compound 208, ((2-(((5S,8S,10aR)-3-acetyl-8-(3-(3-cyanophenyl)azetidine-1-carbonyl)-6-oxodecahydropyrrolo[1,2-a][1,5]diazocin-5-yl)carbamoyl)benzo[b]thiophen-5-yl)difluoromethyl)phosphonic acid], the 50% inhibitory concentration (IC50) was no more than 0.1 µM in assay [1] and 0.3 to 3 µM in assay [2].

As for `O=C(N[C@H]1CCN(C(c2ccccc2)c2ccccc2)C[C@H]2CC[C@@H](C(=O)N3CC(c4cccnc4)C3)N2C1=O)c1cc2cc(C(F)(F)P(=O)(O)O)ccc2s1` [Compound 210, ((2-(((5S,8S,10aR)-2-benzhydryl-6-oxo-8-(3-(pyridin-3-yl)azetidine-1-carbonyl)decahydropyrrolo[1,2-a][1,4]diazocin-5-yl)carbamoyl)benzo[b]thiophen-5-yl)difluoromethyl)phosphonic acid], the 50% inhibitory concentration (IC50) in assay [1] was no more than 0.1 µM; in assay [2], 3 to 30 µM.

As for `O=C(N[C@H]1CCNC[C@H]2CC[C@@H](C(=O)N3CC(c4cccnc4)C3)N2C1=O)c1cc2cc(C(F)(F)P(=O)(O)O)ccc2s1` [Compound 212, (difluoro(2-(((5S,8S,10aR)-6-oxo-8-(3-(pyridin-3-yl)azetidine-1-carbonyl)decahydropyrrolo[1,2-a][1,4]diazocin-5-yl)carbamoyl)benzo[b]thiophen-5-yl)methyl)phosphonic acid], the IC50 was in the range of 1 to 10 µM in assay [1] and 3 to 30 µM in assay [2].

In the case of `O=C(N[C@H]1CCN(C(=O)OCc2ccccc2)C[C@H]2CC[C@@H](C(=O)N3CC(c4cccnc4)C3)N2C1=O)c1cc2cc(C(F)(F)P(=O)(O)O)ccc2s1` [Compound 214, ((2-(((5S,8S,10aR)-2-((benzyloxy)carbonyl)-6-oxo-8-(3-(pyridin-3-yl)azetidine-1-carbonyl)decahydropyrrolo[1,2-a][1,4]diazocin-5-yl)carbamoyl)benzo[b]thiophen-5-yl)difluoromethyl)phosphonic acid], the IC50 was no more than 0.1 µM in assay [1] and 3 to 30 µM in assay [2].

For `O=C(N[C@H]1CN(C(=O)CCc2ccccc2)CC[C@H]2CC[C@@H](C(=O)Nc3ccc(-c4ccccc4)cc3)N2C1=O)c1cc2cc(C(F)(F)P(=O)(O)O)ccc2[nH]1` [Compound 215, ((2-(((5S,8S,10aR)-8-([1,1′-biphenyl]-4-ylcarbamoyl)-6-oxo-3-(3-phenylpropanoyl)decahydropyrrolo[1,2a][1,5]diazocin-5-yl)carbamoyl)-1H-indol-5-yl)difluoromethyl)phosphonic acid], the IC50 in assay [1] is 0.1 to 1 µM; in assay [2], no more than 0.3 µM.

As for `C[C@H](C(=O)N1CC[C@H]2CC[C@@H](C(=O)N(C)c3ccccc3)N2C(=O)[C@@H](NC(=O)c2cc3cc(C(F)(F)P(=O)(O)O)ccc3[nH]2)C1)c1ccccc1` [Compound 216, (difluoro(2-(((5S,8S,10aR)-8-(methyl(phenyl)carbamoyl)-6-oxo-3-((S)-2-phenylpropanoyl)decahydropyrrolo[1,2 a][1,5]diazocin-5-yl)carbamoyl)-1H-indol-5-yl)methyl)phosphonic acid], the IC50 in assay [1] fell in the range of 1 to 10 µM; in assay [2] it was 0.3 to 3 µM.

The record behind these values is patent US20250179103A1, “6-OXODECAHYDROPYRROLO[1,2-A][1,5]DIAZOCINE AND 6-OXODECAHYDRO-4H-PYRROLO[2,1-D][1,5]THIAZOCINE DERIVATIVES AS STAT3 AND STAT6 MODULATORS FOR THE TREATMENT OF CANCER AND INFLAMMATORY CONDITIONS” (Recludix Pharma, Inc., priority 2022, published 2025).
